In assay [1] the test system is seedlings of a submergence intolerant cultivar. The following applies: elongation response inhibited by spraying; cited from earlier work.
The test system of assay [2] is SH2A gene expression. As to the kind of experiment: Northern blot analysis of SH2A transcript abundance in isolated deepwater rice stem segments treated with hormone or inhibitor solutions. In kind it is cell-based, Oryza sativa L. Here is the method:
Seeds of deepwater rice (Oryza sativa L., Pin Gaew 56) were obtained from the International Rice Research Institute (Los Baños, The Philippines). Plants were grown for 12 to 14 weeks as described (Sauter, 1997). All experiments were carried out under continuous light (200 μE/m^−2 s^−1) at 25° C. in a growth chamber. For submergence treatment, whole plants were placed in a 600 liter plastic barrel filled with tap water as described (Lorbiecke and Sauter, 1999). Control plants were kept in the same growth chamber. Analysis of hormone and inhibitor effects was performed using excised stem segments containing the upper highest growth responsive internode. (Raskin and Kende, 1984). Stem segments were incubated in 150 ml beakers with 25 ml aqueous solutions containing the indicated concentrations of gibberellin A3 (GA3) or the hormone precursor ethephon (2-chlorethanephosphoric acid, E) or water alone as a control. Control segments were incubated for 0.5 or 3 h in water. For ethephon treatment stem segments were preincubated for 0.5 h in water before adding ethephon for 2.5 h.
To guarantee high humidity, the beakers were placed in plastic cylinders. Ethylene action was inhibited using 2,5-norbornadiene (bicyclo[2.2.1]hepta-2,5-diene, NBD) at a concentration of 50 μl/l in the gas phase as described (Lorbiecke and Sauter, 1999).
To inhibit protein synthesis, stem sections were incubated with aqueous solutions of cycloheximide for 3 hours at the concentrations indicated.
To determine submergence-dependent gene expression, mRNA abundance of SH2A and SH2B was analysed by RNA gel blot hybridization. RNA was isolated from different zones of the youngest internode and from adventitious roots of the third node from airgrown or partially submerged deepwater rice plants. Thus, tissue sections of the highest internode, 0-5 mm above the second node and containing the intercalary meristem; 5-15 mm above the second node containing the elongation zone; and 15-30 mm above the second node and containing the differentiation zone were used (Lorbiecke and Sauter, 1997). Adventitious roots of the third node were isolated as described (Lorbiecke and Sauter, 1999). The tissues were immediately frozen in liquid nitrogen and stored at −70° C. until RNA extraction. Total RNA was isolated with the TRIzol reagent (Gibco BRL) and precipitated with 4 M LiCl as described (Puissant and Houdebine, 1990, Lorbiecke and Sauter, 1999). RNA separation and Northern blot hybridization were carried out as described previously (Lorbiecke and Sauter, 1998). For RNA blot analysis, 20 μg of total RNA was separated by electrophoresis on a 1% (w/v) agarose gel containing 6% formaldehyde. The RNA was blotted to a nylon membrane (Hybond N+; Amersham, Braunschweig, Germany) according to Lorbiecke and Sauter (1998). For hybridization, gene-specific cDNA-fragments covering the 3′-regions of SH2A (nt 496-867) and SH2B (nt 513-980) were random prime labelled with 32P using the ‘Rediprime Labelling Kit’ (Amersham, Braunschweig, Germany). Hybridization was carried out overnight at 68° C. in 1% SDS, 1 M NaCl, 10% (w/v) dextran sulfate and heat-denatured salmon sperm DNA. The blots were washed once in 1× SSC (0.15 M NaCl, 15 mM Na-citrate, pH 7.0) at 68° C. and once in 1× SSC, 1% (w:v) SDS at 68° C. for 10 min each (Sauter, 1997).
To analyse the hormone-dependent expression of the SH2A gene, isolated stem segments containing the youngest internode were treated with different hormone or inhibitor solutions for 2.5 hours. Total RNAs were isolated from the regions containing the intercalary meristem and the elongation zone and were analysed for SH2A transcript abundance (FIG. 8a).

Assay [3] concerns endogenous ABA and GA1 levels in internodes. Conditions: cited from earlier work.

These results are taken from patent US20020032918A1, “Alteration of growth and adaptation under hypoxic conditions” (priority 2000, published 2002).

Consider `CC(C)(C)[C@@H](O)[C@@H](Cc1ccc(Cl)cc1)n1cncn1` (racemic) [paclobutrazol], for which the survival of seedlings result in assay [1] is recorded as “greatly enhanced”.

In the case of `O=P(O)(O)CCCl` [ethephon, 2-chloroethanephosphoric acid], the “SH2A mRNA levels between 2 and 6 hours” value in assay [2] (150 μM ethephon, meristem and elongation zone) is listed as “declined to control levels”. Besides, in assay [2] (150 μM ethephon, meristem and elongation zone, RNA at 1 hour intervals), the “time of maximal SH2A mRNA abundance” value came to 2 h. Moreover, the “lowest ethephon concentration inducing SH2A transcript accumulation” value in assay [2] (2.5 hours, 0.015-150 μM tested, intercalary meristem) was 1.5 µM. The SH2A transcript levels result in assay [2] (stem segments treated with 150 μM ethephon, 2.5 h, intercalary meristem and elongation zone) is reported as “strong increase”.

On to `C=C` [ethylene], for which the “increase of endogenous GA1 levels” value in assay [3] (at the same time (within three hours)) is given as “four-fold”. In addition, the “reduction of endogenous ABA levels in internodes” value in assay [3] (within three hours of application of ethylene) is given as 75%.

As for `C=C1C[C@]23C[C@@]1(O)CC[C@H]2[C@@]12C=C[C@H](O)[C@@](C)(C(=O)O1)[C@H]2[C@@H]3C(=O)O` [GA3, gibberellin A3], in assay [2] (incubation with 50 μM GA3, after 2.5 h, compared with controls), the SH2A transcript levels result is recorded as “did not result in increased SH2A transcript levels”.

For `C1=CC2C=CC1C2` [norbornadiene, bicyclo[2.2.1]hepta-2,5-diene], in assay [2] (ethephon in combination with norbornadiene at 50 μl/l in the gas phase), the SH2A transcript levels entry is “reduced to control levels”.

As to `C[C@@H]1C[C@@H]([C@H](O)CC2CC(=O)NC(=O)C2)C(=O)[C@@H](C)C1` [cycloheximide], the “induction of SH2A gene expression in the presence of the protein synthesis inhibitor” value in assay [2] (150 μM ethephon with cycloheximide, intercalary meristem) is given as “occurred”. The “cycloheximide concentration required for SH2A gene induction” value in assay [2] (dose response, 3 h, intercalary meristem) is at least 20 µg/mL. The “SH2A transcripts after treatment with CHX alone” value in assay [2] (stem segments, 3 h, intercalary meristem) was “accumulation of SH2A transcripts”.
